The nature of series [1]: Inhibition of beta lactamase TEM-1 in Enterobacter cloacae assessed as decrease in enzyme activity using nitrocefin as substrate preincubated for 10 mins followed by substrate addition measured for 10 mins by fluorescence plate reader analysis.
Series [2] relates to Acinetobacter baumannii. In words: Inhibition of beta lactamase OXA in carbapenem-resistant Acinetobacter baumannii assessed as meropenem-induced antibacterial activity by measuring meropenem MIC90 at 4 ug/ml by broth microdilution method (Rvb > 32 ug/ml). The note with it: dose 4.0 µg/ml. A general note: Dilution methods test growth across graded concentrations, often in twofold steps.

For series [3], the system named is Acinetobacter baumannii. In words: Inhibition of beta lactamase OXA in carbapenem-resistant Acinetobacter baumannii assessed as meropenem minimum concentration required for antibacterial activity at 4 ug/ml by broth microdilution method (reference value: 8 ug/ml). As to conditions: dose 4.0 µg/ml.
Series [4] concerns Enterobacter cloacae. In words: Potentiation of meropenem-induced antibacterial activity against Enterobacter cloacae expressing TEM-1/KPC-2 assessed as meropenem MIC at 4 ug/ml by broth microdilution method (reference value: 8 ug/ml). The class given is functional. As to conditions: dose 4 µg/ml.
Series [5] is described as follows: Inhibition of beta lactamase AmpC in Enterobacter cloacae assessed as decrease in enzyme activity using nitrocefin as substrate preincubated for 10 mins followed by substrate addition measured for 10 mins by fluorescence plate reader analysis.
Series [6] deals with Acinetobacter baumannii. In words: Potentiation of meropenem-induced antibacterial activity against Acinetobacter baumannii expressing OXA-23 assessed as meropenem MIC at 4 ug/ml by broth microdilution method (reference value: 32 ug/ml). The series is classed as functional. The note with it: dose 4 µg/ml.
The nature of series [7]: Inhibition of beta lactamase OXA-48 in Enterobacter cloacae assessed as decrease in enzyme activity using nitrocefin as substrate preincubated for 10 mins followed by substrate addition measured for 10 mins by fluorescence plate reader analysis.
In series [8] the test system is Enterobacter. In words: Inhibition of beta lactamase KPC in carbapenem-resistant Enterobacter assessed as meropenem-induced antibacterial activity by measuring meropenem MIC90 at 4 ug/ml by broth microdilution method (Rvb >32 ug/ml). The note with it: dose 4.0 µg/ml.
In series [9] the test system is Enterobacter. In words: Inhibition of beta lactamase OXA in carbapenem-resistant Enterobacter assessed as meropenem minimum concentration required for antibacterial activity at 4 ug/ml by broth microdilution method (reference value: 2 ug/ml). The note with it: dose 4.0 µg/ml.
Series [10] concerns Klebsiella pneumoniae. The experiment in a line: Potentiation of meropenem-induced antibacterial activity against Klebsiella pneumoniae expressing SHV-11/OXA-121 assessed as meropenem MIC at 4 ug/ml by broth microdilution method (reference value: 16 ug/ml). The series is classed as functional. As to conditions: dose 4 µg/ml.
Series [11] can be described thus: Inhibition of beta lactamase KPC-2 in Enterobacter cloacae assessed as decrease in enzyme activity using nitrocefin as substrate preincubated for 10 mins followed by substrate addition measured for 10 mins by fluorescence plate reader analysis.
In series [12] the test system is Enterobacter. In words: Inhibition of beta lactamase OXA in carbapenem-resistant Enterobacter assessed as meropenem-induced antibacterial activity by measuring meropenem MIC 90 at 4 ug/ml by broth microdilution method (Rvb >32 ug/ml). As to conditions: dose 4.0 µg/ml.
In series [13] the test system is Acinetobacter baumannii. In words: Inhibition of beta lactamase OXA in carbapenem-resistant Acinetobacter baumannii assessed as meropenem maximum concentration required for antibacterial activity at 4 ug/ml by broth microdilution method (Rvb > 32 ug/ml). The note with it: dose 4.0 µg/ml.
The test system of series [14] is Enterobacter. The experiment in a line: Inhibition of beta lactamase KPC in carbapenem-resistant Enterobacter assessed as meropenem minimum concentration required for antibacterial activity at 4 ug/ml by broth microdilution method (reference value: 4 ug/ml). As to conditions: dose 4.0 µg/ml.
Series [15] concerns Klebsiella pneumoniae. In words: Potentiation of meropenem-induced antibacterial activity against Klebsiella pneumoniae expressing TEM-OSBL/CTX-M-14/OXA-48 assessed as meropenem MIC at 4 ug/ml by broth microdilution method (reference value: 16 ug/ml). As to conditions: dose 4 µg/ml. The class given is functional.
The test system of series [16] is Enterobacter. In words: Inhibition of beta lactamase KPC in carbapenem-resistant Enterobacter assessed as meropenem maximum concentration required for antibacterial activity at 4 ug/ml by broth microdilution method (Rvb >32 ug/ml). The note with it: dose 4.0 µg/ml.
A short description of series [17]: Inhibition of bacteria beta lactamase OXA-23 assessed as decrease in enzyme activity using nitrocefin as substrate preincubated for 10 mins followed by substrate addition measured for 10 mins by fluorescence plate reader analysis.
Series [18] has as its system Enterobacter. The experiment in a line: Inhibition of beta lactamase KPC in carbapenem-resistant Enterobacter assessed as meropenem-induced antibacterial activity by measuring meropenem MIC50 at 4 ug/ml by broth microdilution method (Rvb >32 ug/ml). The note with it: dose 4.0 µg/ml.
Series [19] relates to Enterobacter. The experiment in a line: Inhibition of beta lactamase OXA in carbapenem-resistant Enterobacter assessed as meropenem maximum concentration required for antibacterial activity at 4 ug/ml by broth microdilution method (Rvb > 32 ug/ml). The note with it: dose 4.0 µg/ml.
Series [20] concerns Enterobacter. In words: Inhibition of beta lactamase OXA in carbapenem-resistant Enterobacter assessed as meropenem-induced antibacterial activity by measuring meropenem MIC50 at 4 ug/ml by broth microdilution method (reference value: 16 ug/ml). As to conditions: dose 4.0 µg/ml.
In series [21] the test system is Klebsiella pneumoniae. The experiment in a line: Potentiation of meropenem-induced antibacterial activity against Klebsiella pneumoniae expressing TEM-1/SHV-11/KPC-3 assessed as meropenem MIC at 4 ug/ml by broth microdilution method (reference value: 128 ug/ml). The series is classed as functional. As to conditions: dose 4 µg/ml.
The nature of series [22]: Inhibition of beta lactamase CTXM-15 in Enterobacter cloacae assessed as decrease in enzyme activity using nitrocefin as substrate preincubated for 10 mins followed by substrate addition measured for 10 mins by fluorescence plate reader analysis.
The test system of series [23] is Acinetobacter baumannii. In words: Inhibition of beta lactamase OXA in carbapenem-resistant Acinetobacter baumannii assessed as meropenem-induced antibacterial activity by measuring meropenem MIC50 at 4 ug/ml by broth microdilution method (Rvb > 32 ug/ml). The note with it: dose 4.0 µg/ml.
The test system of series [24] is Klebsiella pneumoniae. In words: Antibacterial activity against Klebsiella pneumoniae expressing TEM-1/SHV-11/KPC-3 by broth microdilution method. The series is classed as functional.
Series [25] is described as follows: Half life in rat at 1 mg/kg, iv. As to conditions: in vivo. The class given is ADME, organism-based.
Series [26] is described as follows: Clearance in rat at 1 mg/kg, iv. The class given is ADME, organism-based. The note with it: in vivo.
Series [27] relates to Acinetobacter baumannii. In words: Antibacterial activity against Acinetobacter baumannii expressing OXA-23 by broth microdilution method. The series is classed as functional.
Series [28] in a line: AUC in rat at 1 mg/kg, iv. The class given is ADME, organism-based. On the set-up: dose 1 mg/kg. The note with it: in vivo.
Series [29] deals with Klebsiella pneumoniae. In words: Antibacterial activity against Klebsiella pneumoniae expressing TEM-OSBL/CTX-M-14/OXA-48 by broth microdilution method. The series is classed as functional.
The subject of series [30] is Enterobacter cloacae. The experiment in a line: Antibacterial activity against Enterobacter cloacae expressing TEM-1/KPC-2 by broth microdilution method. The series is classed as functional.
A short description of series [31]: Volume of distribution in rat at 1 mg/kg, iv. The series is classed as ADME, organism-based. The note with it: in vivo.
The subject of series [32] is Klebsiella pneumoniae. The experiment in a line: Antibacterial activity against Klebsiella pneumoniae expressing SHV-11/OXA-181 by broth microdilution method. The class given is functional.

Structures are written as SMILES. Converted amounts (≈) assume the structure as drawn. Bounds are passed on as bounds.

For orientation: IC50 means the point on the concentration scale where inhibition reaches its midpoint. For `N#C[C@@H]1CC[C@@H]2CN1C(=O)N2OS(=O)(=O)[O-].[Na+]`, the IC50 turned out to be 67 nM in [1]; 3 nM in series [5]; 2 nM in series [7]; 8 nM in series [11]; 59 nM in [17]; 4 nM in [22]. In addition, the MIC90 came out at 32 µg/mL in series [2], 1 µg/mL in series [8] and 0.25 µg/mL in [12]. In addition, the MIC in [3] was 0.25 µg/mL; in series [4], 0.06 µg/mL; in series [6] it was 4 µg/mL; in series [9], less than 0.03 µg/mL; in series [10] it was 0.25 µg/mL; in [14] it was less than 0.03 µg/mL. Also, the MIC is 0.06 µg/mL in series [15] and 0.5 µg/mL in series [21]. Besides, the Activity was greater than 32 µg/mL in [13], 16 µg/mL in [16] and 0.5 µg/mL in [19]. Further, the values for the MIC50 in series [18], in series [20] and in series [23] were 0.06 µg/mL, 0.12 µg/mL and 16 µg/mL, respectively.

What is called half-life is the time in which the quantity being followed falls by half. Low readings indicate rapid decline, high ones slow decline. As a reminder, the clearance is a measure of how efficiently the substance is removed, as volume per time. A low value points to inefficient removal. As usually defined, the AUC is concentration integrated over time. Read a high AUC as high exposure. In general, Vd refers to a proportionality between amount in the body and measured concentration, not a real space. A higher Vd goes with wide distribution into tissue. Consider `NC(=O)[C@@H]1CC[C@@H]2CN1C(=O)N2OS(=O)(=O)O` [AVIBACTAM], for which the IC50 in [1] was 5 nM; in series [5], 8 nM; in [7], 252 nM; in series [11] it was 8 nM; in series [17], greater than 3000 nM; in series [22], 1 nM. In addition, the MIC in [24] is 16 µg/mL (≈ 60.3 µM); in series [4], 0.03 µg/mL; in series [6], 16 µg/mL; in series [27], greater than 128 µg/mL; in [29], 16 µg/mL (≈ 60.3 µM); in [30] it was 16 µg/mL (≈ 60.3 µM). The MIC in [10] is 1 µg/mL; in series [15], 0.5 µg/mL; in series [32] it was 32 µg/mL (≈ 121 µM); in [21], 0.25 µg/mL. The half-life in [25] is 22.2 min. Moreover, in [26], the clearance worked out at 59 mL/min/kg. The AUC in series [28] was 279 ng·h/mL. This compound also came in with a Vd in series [31] of 1.9 L/kg.

Source of the values: ChEMBL document CHEMBL4699665, “Discovery of ANT3310, a Novel Broad-Spectrum Serine β-Lactamase Inhibitor of the Diazabicyclooctane Class, Which Strongly Potentiates Meropenem Activity against Carbapenem-Resistant Enterobacterales and Acinetobacter baumannii” (J Med Chem, 2020).
